Measurements taken from patent US20230085307A1, “PYRIDAZINONE COMPOUND AND HERBICIDE” (NISSAN CHEMICAL CORPORATION, priority 2019, published 2023).

Columns and labels:
late watergrass = test: Test Example 1: herbicidal activity, application before weed generation under submerged conditions (Table 16, symbol A); type: in vivo, late watergrass (Echinochloa oryzicola); details: amount of applied herbicide 320 g/ha
In short: (§1)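 Alluvial soil was flooded to 4 cm depth, weed seeds were sown mixed and 2.5-leaf rice seedlings were transplanted. On sowing day, the compound's emulsion, diluted in water to a set dose, was applied to the water surface. Plants grew at 25–30 °C and were scored 0–5 after three weeks.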

Japanese bulrush = test: Test Example 1: herbicidal activity, application before weed generation under submerged conditions (Table 16, symbol B); type: in vivo, Japanese bulrush (Schoenoplectus juncoides); details: amount of applied herbicide 320 g/ha
In short: as §1

oval-leafed pondweed = test: Test Example 1: herbicidal activity, application before weed generation under submerged conditions (Table 16, symbol C); type: in vivo, oval-leafed pondweed (Monochoria vaginalis); details: amount of applied herbicide 320 g/ha
In short: as §1

barnyard grass [1] = test: Test Example 3: herbicidal effect by foliage application, Wagner pot (Table 18, symbol H); type: in vivo, barnyard grass (Echinochloa crus-galli); details: 320 g/ha
In short: (§2)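 Plants were sown in alluvial soil held under 0.1–0.5 cm standing water and grown 14 days in a greenhouse at 25–30 °C. An emulsifiable formulation, water-diluted to the set dose, was then sprayed onto the foliage, and effects were scored three weeks later using previously defined criteria.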

Chinese sprangletop = test: Test Example 3: herbicidal effect by foliage application, Wagner pot (Table 18, symbol D); type: in vivo, chinese sprangletop (Leptochloa chinensis); details: 320 g/ha
In short: as §2

rice flat sedge = test: Test Example 3: herbicidal effect by foliage application, Wagner pot (Table 18, symbol E); type: in vivo, rice flat sedge (Cyperus iria); details: 320 g/ha
In short: as §2

southern crabgrass [2] = test: Test Example 4: herbicidal effect by soil treatment (Table 19, symbol F); type: in vivo, southern crabgrass (Digitaria ciliaris); details: amount of applied herbicide 320 g/ha
In short: (§3)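 Step 1: sow seeds in sterilized diluvial soil, cover ~1.5 cm. Step 2: spray diluted emulsion onto soil surface at predetermined rate. Step 3: greenhouse, 25–30° C, three weeks. Step 4: grade effect on each plant by earlier criteria.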

green foxtail [3] = test: Test Example 4: herbicidal effect by soil treatment (Table 19, symbol G); type: in vivo, green foxtail (Setaria viridis); details: amount of applied herbicide 320 g/ha
In short: as §3

barnyard grass [4] = test: Test Example 4: herbicidal effect by soil treatment (Table 19, symbol H); type: in vivo, barnyard grass (Echinochloa crus-galli); details: amount of applied herbicide 320 g/ha
In short: as §3

wild oat [5] = test: Test Example 4: herbicidal effect by soil treatment (Table 19, symbol I); type: in vivo, wild oat (Avena fatua); details: amount of applied herbicide 320 g/ha
In short: as §3

blackgrass [6] = test: Test Example 4: herbicidal effect by soil treatment (Table 19, symbol J); type: in vivo, blackgrass (Alopecurus myosuroides); details: amount of applied herbicide 320 g/ha
In short: as §3

Italian ryegrass [7] = test: Test Example 4: herbicidal effect by soil treatment (Table 19, symbol K); type: in vivo, Italian ryegrass (Lolium multiflorum); details: amount of applied herbicide 320 g/ha
In short: as §3

windgrass [8] = test: Test Example 4: herbicidal effect by soil treatment (Table 19, symbol L); type: in vivo, windgrass (Apera spica-venti); details: amount of applied herbicide 320 g/ha
In short: as §3

velvetleaf [9] = test: Test Example 4: herbicidal effect by soil treatment (Table 19, symbol M); type: in vivo, velvetleaf (Abutilon theophrasti); details: amount of applied herbicide 320 g/ha
In short: as §3

redroot pigweed [10] = test: Test Example 4: herbicidal effect by soil treatment (Table 19, symbol N); type: in vivo, redroot pigweed (Amaranthus retroflexus); details: amount of applied herbicide 320 g/ha
In short: as §3

lambsquarters [11] = test: Test Example 4: herbicidal effect by soil treatment (Table 19, symbol O); type: in vivo, lambsquarters (Chenopodium album); details: amount of applied herbicide 320 g/ha
In short: as §3

chickweed [12] = test: Test Example 4: herbicidal effect by soil treatment (Table 19, symbol P); type: in vivo, common chickweed (Stellaria media); details: amount of applied herbicide 320 g/ha
In short: as §3

false cleavers [13] = test: Test Example 4: herbicidal effect by soil treatment (Table 19, symbol Q); type: in vivo, false cleavers (Galium spurium); details: amount of applied herbicide 320 g/ha
In short: as §3

persian speedwell [14] = test: Test Example 4: herbicidal effect by soil treatment (Table 19, symbol R); type: in vivo, Persian speedwell (Veronica persica); details: amount of applied herbicide 320 g/ha
In short: as §3

southern crabgrass [15] = test: Test Example 5: herbicidal effect by foliage application, plastic box (Table 20, symbol F); type: in vivo, southern crabgrass (Digitaria ciliaris); details: foliage application, 320 g/ha, three weeks after application
In short: (§4)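 Foliar spray test: emulsion formulation diluted in water to a set application rate, sprayed onto 14-day-old plants raised in diluvial soil at 25° C to 30° C under glass. Both herbicidal effect and crop effect rated visually three weeks later.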

green foxtail [16] = test: Test Example 5: herbicidal effect by foliage application, plastic box (Table 20, symbol G); type: in vivo, green foxtail (Setaria viridis); details: foliage application, 320 g/ha, three weeks after application
In short: as §4

barnyard grass [17] = test: Test Example 5: herbicidal effect by foliage application, plastic box (Table 20, symbol H); type: in vivo, barnyard grass (Echinochloa crus-galli); details: foliage application, 320 g/ha, three weeks after application
In short: as §4

wild oat [18] = test: Test Example 5: herbicidal effect by foliage application, plastic box (Table 20, symbol I); type: in vivo, wild oat (Avena fatua); details: foliage application, 320 g/ha, three weeks after application
In short: as §4

blackgrass [19] = test: Test Example 5: herbicidal effect by foliage application, plastic box (Table 20, symbol J); type: in vivo, blackgrass (Alopecurus myosuroides); details: foliage application, 320 g/ha, three weeks after application
In short: as §4

Italian ryegrass [20] = test: Test Example 5: herbicidal effect by foliage application, plastic box (Table 20, symbol K); type: in vivo, Italian ryegrass (Lolium multiflorum); details: foliage application, 320 g/ha, three weeks after application
In short: as §4

windgrass [21] = test: Test Example 5: herbicidal effect by foliage application, plastic box (Table 20, symbol L); type: in vivo, windgrass (Apera spica-venti); details: foliage application, 320 g/ha, three weeks after application
In short: as §4

velvetleaf [22] = test: Test Example 5: herbicidal effect by foliage application, plastic box (Table 20, symbol M); type: in vivo, velvetleaf (Abutilon theophrasti); details: foliage application, 320 g/ha, three weeks after application
In short: as §4

redroot pigweed [23] = test: Test Example 5: herbicidal effect by foliage application, plastic box (Table 20, symbol N); type: in vivo, redroot pigweed (Amaranthus retroflexus); details: foliage application, 320 g/ha, three weeks after application
In short: as §4

lambsquarters [24] = test: Test Example 5: herbicidal effect by foliage application, plastic box (Table 20, symbol O); type: in vivo, lambsquarters (Chenopodium album); details: foliage application, 320 g/ha, three weeks after application
In short: as §4

chickweed [25] = test: Test Example 5: herbicidal effect by foliage application, plastic box (Table 20, symbol P); type: in vivo, common chickweed (Stellaria media); details: foliage application, 320 g/ha, three weeks after application
In short: as §4

false cleavers [26] = test: Test Example 5: herbicidal effect by foliage application, plastic box (Table 20, symbol Q); type: in vivo, false cleavers (Galium spurium); details: foliage application, 320 g/ha, three weeks after application
In short: as §4

persian speedwell [27] = test: Test Example 5: herbicidal effect by foliage application, plastic box (Table 20, symbol R); type: in vivo, Persian speedwell (Veronica persica); details: foliage application, 320 g/ha, three weeks after application
In short: as §4

Compound: CCCC(=O)Oc1c(C)nn(C)c(=O)c1-c1c(-c2ccc(F)cc2OC)sc2cc(Cl)ccc12 [3-044]
- Herbicidal effect, A: late watergrass (late watergrass): 3 (Herbicidal rate of 40% or more and less than 70%)
- Herbicidal effect, B: Japanese bulrush (Japanese bulrush): 0 (Herbicidal rate of 5% or less (almost no effect))
- Herbicidal effect, C: oval-leafed pondweed (oval-leafed pondweed): 0 (Herbicidal rate of 5% or less (almost no effect))
- herbicidal effect on barnyard grass (H) (barnyard grass [1]): 5 (Herbicidal rate of 90% or more (almost completely withered))
- herbicidal effect on Chinese sprangletop (D) (Chinese sprangletop): 0 (Herbicidal rate of 5% or less (almost no effect))
- herbicidal effect on rice flat sedge (E) (rice flat sedge): 3 (Herbicidal rate of 40% or more and less than 70%)
- F: southern crabgrass, herbicidal effect grade (southern crabgrass [2]): 1 (Herbicidal rate of 5% or more and less than 20%)
- G: green foxtail, herbicidal effect grade (green foxtail [3]): 1 (Herbicidal rate of 5% or more and less than 20%)
- H: barnyard grass, herbicidal effect grade (barnyard grass [4]): 3 (Herbicidal rate of 40% or more and less than 70%)
- I: wild oat, herbicidal effect grade (wild oat [5]): 0 (Herbicidal rate of 5% or less (almost no effect))
- J: blackgrass, herbicidal effect grade (blackgrass [6]): 0 (Herbicidal rate of 5% or less (almost no effect))
- K: Italian ryegrass, herbicidal effect grade (Italian ryegrass [7]): 0 (Herbicidal rate of 5% or less (almost no effect))
- L: windgrass, herbicidal effect grade (windgrass [8]): 3 (Herbicidal rate of 40% or more and less than 70%)
- M: velvetleaf, herbicidal effect grade (velvetleaf [9]): 2 (Herbicidal rate of 20% or more and less than 40%)
- N: redroot pigweed, herbicidal effect grade (redroot pigweed [10]): 4 (Herbicidal rate of 70% or more and less than 90%)
- O: lambsquarters, herbicidal effect grade (lambsquarters [11]): 4 (Herbicidal rate of 70% or more and less than 90%)
- P: chickweed, herbicidal effect grade (chickweed [12]): 4 (Herbicidal rate of 70% or more and less than 90%)
- Q: false cleavers, herbicidal effect grade (false cleavers [13]): 4 (Herbicidal rate of 70% or more and less than 90%)
- R: persian speedwell, herbicidal effect grade (persian speedwell [14]): 3 (Herbicidal rate of 40% or more and less than 70%)
- F: southern crabgrass, herbicidal effect grade (southern crabgrass [15]): 3 (Herbicidal rate of 40% or more and less than 70%)
- G: green foxtail, herbicidal effect grade (green foxtail [16]): 4 (Herbicidal rate of 70% or more and less than 90%)
- H: barnyard grass, herbicidal effect grade (barnyard grass [17]): 5 (Herbicidal rate of 90% or more (almost completely withered))
- I: wild oat, herbicidal effect grade (wild oat [18]): 4 (Herbicidal rate of 70% or more and less than 90%)
- J: blackgrass, herbicidal effect grade (blackgrass [19]): 5 (Herbicidal rate of 90% or more (almost completely withered))
- K: Italian ryegrass, herbicidal effect grade (Italian ryegrass [20]): 0 (Herbicidal rate of 5% or less (almost no effect))
- L: windgrass, herbicidal effect grade (windgrass [21]): 5 (Herbicidal rate of 90% or more (almost completely withered))
- M: velvetleaf, herbicidal effect grade (velvetleaf [22]): 4 (Herbicidal rate of 70% or more and less than 90%)
- N: redroot pigweed, herbicidal effect grade (redroot pigweed [23]): 3 (Herbicidal rate of 40% or more and less than 70%)
- O: lambsquarters, herbicidal effect grade (lambsquarters [24]): 3 (Herbicidal rate of 40% or more and less than 70%)
- P: chickweed, herbicidal effect grade (chickweed [25]): 5 (Herbicidal rate of 90% or more (almost completely withered))
- Q: false cleavers, herbicidal effect grade (false cleavers [26]): 4 (Herbicidal rate of 70% or more and less than 90%)
- R: persian speedwell, herbicidal effect grade (persian speedwell [27]): 3 (Herbicidal rate of 40% or more and less than 70%)
